“Also recorded” adds a separate entry of the source.

One data set has as its system rats. The data set can be described thus: Toxicology: organs sectioned and examined after dosing. The settings on record: 25 mg/kg, two animals examined, findings per animal. It is filed as in vivo. Here is the method: In at least two of the animals in each group, the pancreas, right kidney and part of the liver, heart, spleen, and lung were removed and evaluated for toxic effects.
The toxicology of animals receiving some of the compounds of the present invention IP and/or oral was examined. At the time of sacrifice samples of liver, pancreas, heart, lung, spleen and kidney were removed, visually inspected, and immersion fixed in Bouin's solution for a minimum of 48 hours. All organs were then sectioned and examined for evidence of necrosis, inflammation, hemorrhage, and possible tumors. The major veins in each tissue were also examined for distention, especially in the liver and pancreas, and any other abnormalities are compared to known histopathological states. In addition to the above, the heart was examined for evidence of fibrosis in the muscular walls, and to compare the thickness of the ventricular walls. The pancreas was examined mainly for calcium deposits, while the lung was checked for signs of any exudates or hemorrhage, especially in the alveolar spaces. Finally, the kidney was examined mainly for microscopic hemorrhages, tubular necrosis or alterations in the glomeruli in the cortex.
In this example, the effects of RC-MC-30 were compared with those of lonidamine in sexually mature rats. As discussed above, each of the rats (8 total) received a single injection and were sacrificed five days after injection and examined.
On to `CCOC(=O)c1nn(Cc2ccc(Cl)cc2Cl)c2ccccc12` [RC-MC-156, 1-[(2,4-dichlorobenzyl)-1H-indazole]-3-carboxylic acid ethyl ester], for which the “Toxicology: liver, lung, pancreas, spleen, heart and kidney (histology)” value (shortened to “Toxicology: liver, lung, pancreas”) is “The lung did have scattered small, hemorrhagic patches, mainly in the alveolar and terminal bronchiole regions; also recorded: The lung showed widespread hemorrhagic regions throughout the alveoli and terminal bronchioles with small hemosiderin deposits around a few smaller bronchioles”.

Staying with this data set, now noted: 25 mg/kg, two animals examined, findings per animal; listed as JSW-1-158.
`COC(=O)c1nn(Cc2ccc(Cl)cc2Cl)c2cc(F)ccc12` [JWS-1-158, 1-(2,4-dichlorobenzyl)-6-fluoro-1H-indazole-3-carboxylic acid methyl ester]: the “Toxicology: liver, lung, pancreas” value is “liver, lung, pancreas, spleen, heart and kidney all appeared within normal limits; also recorded: The lung had thickening of the alveolar and bronchiole walls, and scattered areas of moderate sized hemorrhaging covering several adjacent alveoli”.

The data set is the same for the next values; noted with them: 200 mg/kg IP, five animals.
With `O=C(O)c1nn(Cc2ccc(Cl)cc2Cl)c2cc(C(F)(F)F)ccc12` [RC-MC-100, 1-(2,4-dichlorobenzyl)-6-trifluoromethyl-1H-indazole-3-carboxylic acid], the “Clinical signs after IP injection” value was “all 5 animals tested became lethargic and ceased moving; also recorded: minor tremors in both hindlimbs which lasted approximately 30 minutes; also recorded: Two of the animals also had wet rales”; the “Deaths after IP injection” value is “Three of the animals died 2-3 hours later”; the “Recovery after IP injection” value is “the other two recovered and did not show any other symptoms”.

Still in this data set, the particulars now being: 200 mg/kg, two animals examined, findings per animal.
Regarding `CCOC(=O)c1nn(Cc2ccc(Cl)cc2Cl)c2ccccc12` [RC-MC-156, 1-[(2,4-dichlorobenzyl)-1H-indazole]-3-carboxylic acid ethyl ester], the “Toxicology: liver, lung, pancreas” value is “liver, lung, pancreas, spleen, heart and kidney all appeared within normal limits; also recorded: The lung had small, scattered areas of hemorrhage mainly around the alveoli and small bronchioles; also recorded: The liver had small (4-5 cells in diameter) patches of necrosis scattered throughout the parenchyma”.

The same data set, now with this note: 200 mg/kg, two animals examined, findings per animal; listed as JSW-1-158.
For `COC(=O)c1nn(Cc2ccc(Cl)cc2Cl)c2cc(F)ccc12` [JWS-1-158, 1-(2,4-dichlorobenzyl)-6-fluoro-1H-indazole-3-carboxylic acid methyl ester], the “Toxicology: liver, lung, pancreas” value is “The pancreas had areas of lymphocytic infiltrates extending from the periphery inwards between the acinar cells; also recorded: liver, lung, pancreas, spleen, heart and kidney all appeared within normal limits”.

Staying with this data set, now noted: Dosage 25 mg/kg, single injection, sacrificed five days after injection, per animal.
As to `COC(=O)c1nn(Cc2ccc(Cl)cc2Cl)c2ccccc12` [RC-MC-30, 1-(2,4-dichlorobenzyl)indazole-3-carboxylic acid methyl ester], the “Kidney (histology)” value is “Small areas with blood”; the “Liver and Pancreas (histology)” value is “Non-remarkable,”.

The same data set, now with this note: Dosage 200 mg/kg, single injection, sacrificed five days after injection, per animal.
Regarding `COC(=O)c1nn(Cc2ccc(Cl)cc2Cl)c2ccccc12` [RC-MC-30, 1-(2,4-dichlorobenzyl)indazole-3-carboxylic acid methyl ester], the “Kidney (histology)” value is reported as “Patchy hemorrhagic areas,”; the “Liver and Pancreas (histology)” value is listed as “Non-remarkable,”.

In another data set the test system is Male Long Evans rats. The data set can be described thus: In vivo antispermatogenic testing in Long Evans rats. As to conditions: 25 mg/kg single i.p. injection; […].
Turning to `COC(=O)c1nn(Cc2ccc(Cl)cc2Cl)c2ccccc12` [RC-MC-30, 1-(2,4-dichlorobenzyl)indazole-3-carboxylic acid methyl ester], the “Mortality (25 mg/kg)” value was 0/5.
On the same count and under the same terms, with `O=C(O)c1nn(Cc2ccc(Cl)cc2Cl)c2cc(C(F)(F)F)ccc12` [RC-MC-100, 1-(2,4-dichlorobenzyl)-6-trifluoromethyl-1H-indazole-3-carboxylic acid] the figure was 0/5; with `CCOC(=O)c1nn(Cc2ccc(Cl)cc2Cl)c2ccccc12` [RC-MC-156, 1-[(2,4-dichlorobenzyl)-1H-indazole]-3-carboxylic acid ethyl ester], 0/5.
As to `COC(=O)c1nn(Cc2ccc(Cl)cc2Cl)c2cc(F)ccc12` [JWS-1-158, 1-(2,4-dichlorobenzyl)-6-fluoro-1H-indazole-3-carboxylic acid methyl ester], the “Mortality (25 mg/kg)” value is given as 0/5.

The same data set, now with this note: 25 mg/kg single i.p. injection; animals responding out of animals surviving; five days following injection.
As to `COC(=O)c1nn(Cc2ccc(Cl)cc2Cl)c2ccccc12` [RC-MC-30, 1-(2,4-dichlorobenzyl)indazole-3-carboxylic acid methyl ester], the “Response 25 mg/kg” value is reported as 3/5.
Same read-out and setting: in the case of `O=C(O)c1nn(Cc2ccc(Cl)cc2Cl)c2cc(C(F)(F)F)ccc12` [RC-MC-100, 1-(2,4-dichlorobenzyl)-6-trifluoromethyl-1H-indazole-3-carboxylic acid] it was 0/5.
In the case of `CCOC(=O)c1nn(Cc2ccc(Cl)cc2Cl)c2ccccc12` [RC-MC-156, 1-[(2,4-dichlorobenzyl)-1H-indazole]-3-carboxylic acid ethyl ester], the “Response 25 mg/kg” value was 2/5.
`COC(=O)c1nn(Cc2ccc(Cl)cc2Cl)c2cc(F)ccc12` [JWS-1-158, 1-(2,4-dichlorobenzyl)-6-fluoro-1H-indazole-3-carboxylic acid methyl ester]: the “Response 25 mg/kg” value is 4/5.

The data set is the same for the next values; noted with them: 200 mg/kg single i.p. injection; […].
As to `COC(=O)c1nn(Cc2ccc(Cl)cc2Cl)c2ccccc12` [RC-MC-30, 1-(2,4-dichlorobenzyl)indazole-3-carboxylic acid methyl ester], the “Mortality (200 mg/kg)” value is 0/5.
Take `O=C(O)c1nn(Cc2ccc(Cl)cc2Cl)c2cc(C(F)(F)F)ccc12` [RC-MC-100, 1-(2,4-dichlorobenzyl)-6-trifluoromethyl-1H-indazole-3-carboxylic acid]: the “Mortality (200 mg/kg)” value is 0/5.
For `CCOC(=O)c1nn(Cc2ccc(Cl)cc2Cl)c2ccccc12` [RC-MC-156, 1-[(2,4-dichlorobenzyl)-1H-indazole]-3-carboxylic acid ethyl ester], the “Mortality (200 mg/kg)” value was 0/5.
The same measure, in the same setting: in the case of `COC(=O)c1nn(Cc2ccc(Cl)cc2Cl)c2cc(F)ccc12` [JWS-1-158, 1-(2,4-dichlorobenzyl)-6-fluoro-1H-indazole-3-carboxylic acid methyl ester] it was 0/5.

Still in this data set, the particulars now being: 200 mg/kg single i.p. injection; animals responding out of animals surviving; five days following injection.
With `COC(=O)c1nn(Cc2ccc(Cl)cc2Cl)c2ccccc12` [RC-MC-30, 1-(2,4-dichlorobenzyl)indazole-3-carboxylic acid methyl ester], the “Response 200 mg/kg” value is 4/5.
Regarding `O=C(O)c1nn(Cc2ccc(Cl)cc2Cl)c2cc(C(F)(F)F)ccc12` [RC-MC-100, 1-(2,4-dichlorobenzyl)-6-trifluoromethyl-1H-indazole-3-carboxylic acid], the “Response 200 mg/kg” value is recorded as 0/5.
For the molecule `CCOC(=O)c1nn(Cc2ccc(Cl)cc2Cl)c2ccccc12` [RC-MC-156, 1-[(2,4-dichlorobenzyl)-1H-indazole]-3-carboxylic acid ethyl ester], the “Response 200 mg/kg” value is recorded as 4/5.
On the same count and under the same terms, in the case of `COC(=O)c1nn(Cc2ccc(Cl)cc2Cl)c2cc(F)ccc12` [JWS-1-158, 1-(2,4-dichlorobenzyl)-6-fluoro-1H-indazole-3-carboxylic acid methyl ester] it was 5/5.

The next data set relates to Salmonella Typhimurium TA 100. The data set can be described thus: Ames test for mutagenicity (plate assay, colony count). The settings on record: (+)S9 mix, 0.1 mg/pl., 48 hours at 37° C.
For the molecule `COC(=O)c1nn(Cc2ccc(Cl)cc2Cl)c2ccccc12` [RC-MC-30, 1-(2,4-dichlorobenzyl)indazole-3-carboxylic acid methyl ester], the “Ames test (+)S9 0.1 mg/pl.” value is “Pass”.
On to `O=C(O)c1nn(Cc2ccc(Cl)cc2Cl)c2cc(C(F)(F)F)ccc12` [RC-MC-100, 1-(2,4-dichlorobenzyl)-6-trifluoromethyl-1H-indazole-3-carboxylic acid], for which the “Ames test (+)S9 0.1 mg/pl.” value was “Pass”.
Take `CCOC(=O)c1nn(Cc2ccc(Cl)cc2Cl)c2ccccc12` [RC-MC-156, 1-[(2,4-dichlorobenzyl)-1H-indazole]-3-carboxylic acid ethyl ester]: the “Ames test (+)S9 0.1 mg/pl.” value is “Pass”.
As to `COC(=O)c1nn(Cc2ccc(Cl)cc2Cl)c2cc(F)ccc12` [JWS-1-158, 1-(2,4-dichlorobenzyl)-6-fluoro-1H-indazole-3-carboxylic acid methyl ester], the “Ames test (+)S9 0.1 mg/pl.” value was “Pass”.

Staying with this data set, now noted: (+)S9 mix, 1 mg/pl., 48 hours at 37° C.
Take `COC(=O)c1nn(Cc2ccc(Cl)cc2Cl)c2ccccc12` [RC-MC-30, 1-(2,4-dichlorobenzyl)indazole-3-carboxylic acid methyl ester]: the “Ames test (+)S9 1 mg/pl.” value is on record as “Pass”.
Regarding `O=C(O)c1nn(Cc2ccc(Cl)cc2Cl)c2cc(C(F)(F)F)ccc12` [RC-MC-100, 1-(2,4-dichlorobenzyl)-6-trifluoromethyl-1H-indazole-3-carboxylic acid], the “Ames test (+)S9 1 mg/pl.” value is recorded as “Pass”.
Turning to `CCOC(=O)c1nn(Cc2ccc(Cl)cc2Cl)c2ccccc12` [RC-MC-156, 1-[(2,4-dichlorobenzyl)-1H-indazole]-3-carboxylic acid ethyl ester], the “Ames test (+)S9 1 mg/pl.” value was “Pass”.
Regarding `COC(=O)c1nn(Cc2ccc(Cl)cc2Cl)c2cc(F)ccc12` [JWS-1-158, 1-(2,4-dichlorobenzyl)-6-fluoro-1H-indazole-3-carboxylic acid methyl ester], the “Ames test (+)S9 1 mg/pl.” value is “Pass”.

Still in this data set, the particulars now being: (+)S9 mix, 10 mg/pl., 48 hours at 37° C.
As for `COC(=O)c1nn(Cc2ccc(Cl)cc2Cl)c2ccccc12` [RC-MC-30, 1-(2,4-dichlorobenzyl)indazole-3-carboxylic acid methyl ester], the “Ames test (+)S9 10 mg/pl.” value is given as “Pass”.
Same read-out and setting: with `O=C(O)c1nn(Cc2ccc(Cl)cc2Cl)c2cc(C(F)(F)F)ccc12` [RC-MC-100, 1-(2,4-dichlorobenzyl)-6-trifluoromethyl-1H-indazole-3-carboxylic acid] the entry was “Pass”; with `CCOC(=O)c1nn(Cc2ccc(Cl)cc2Cl)c2ccccc12` [RC-MC-156, 1-[(2,4-dichlorobenzyl)-1H-indazole]-3-carboxylic acid ethyl ester], “Pass”.
On the same count and under the same terms, with `COC(=O)c1nn(Cc2ccc(Cl)cc2Cl)c2cc(F)ccc12` [JWS-1-158, 1-(2,4-dichlorobenzyl)-6-fluoro-1H-indazole-3-carboxylic acid methyl ester] the entry was “Pass”.

The same data set, now with this note: (−)S9 mix, 0.1 mg/pl., 48 hours at 37° C.
For `COC(=O)c1nn(Cc2ccc(Cl)cc2Cl)c2ccccc12` [RC-MC-30, 1-(2,4-dichlorobenzyl)indazole-3-carboxylic acid methyl ester], the “Ames test (−)S9 0.1 mg/pl.” value is listed as “Pass”.
Take `O=C(O)c1nn(Cc2ccc(Cl)cc2Cl)c2cc(C(F)(F)F)ccc12` [RC-MC-100, 1-(2,4-dichlorobenzyl)-6-trifluoromethyl-1H-indazole-3-carboxylic acid]: the “Ames test (−)S9 0.1 mg/pl.” value is “Pass”.
Turning to `CCOC(=O)c1nn(Cc2ccc(Cl)cc2Cl)c2ccccc12` [RC-MC-156, 1-[(2,4-dichlorobenzyl)-1H-indazole]-3-carboxylic acid ethyl ester], the “Ames test (−)S9 0.1 mg/pl.” value is on record as “Pass”.
On to `COC(=O)c1nn(Cc2ccc(Cl)cc2Cl)c2cc(F)ccc12` [JWS-1-158, 1-(2,4-dichlorobenzyl)-6-fluoro-1H-indazole-3-carboxylic acid methyl ester], for which the “Ames test (−)S9 0.1 mg/pl.” value is “Pass”.

The same data set, now with this note: (−)S9 mix, 1 mg/pl., 48 hours at 37° C.
Take `COC(=O)c1nn(Cc2ccc(Cl)cc2Cl)c2ccccc12` [RC-MC-30, 1-(2,4-dichlorobenzyl)indazole-3-carboxylic acid methyl ester]: the “Ames test (−)S9 1 mg/pl.” value is “Pass”.
Take `O=C(O)c1nn(Cc2ccc(Cl)cc2Cl)c2cc(C(F)(F)F)ccc12` [RC-MC-100, 1-(2,4-dichlorobenzyl)-6-trifluoromethyl-1H-indazole-3-carboxylic acid]: the “Ames test (−)S9 1 mg/pl.” value is “Pass”.
As for `CCOC(=O)c1nn(Cc2ccc(Cl)cc2Cl)c2ccccc12` [RC-MC-156, 1-[(2,4-dichlorobenzyl)-1H-indazole]-3-carboxylic acid ethyl ester], the “Ames test (−)S9 1 mg/pl.” value is on record as “Pass”.
On the same count and under the same terms, in the case of `COC(=O)c1nn(Cc2ccc(Cl)cc2Cl)c2cc(F)ccc12` [JWS-1-158, 1-(2,4-dichlorobenzyl)-6-fluoro-1H-indazole-3-carboxylic acid methyl ester] it was “Pass”.

The data set is the same for the next values; noted with them: (−)S9 mix, 10 mg/pl., 48 hours at 37° C.
As to `COC(=O)c1nn(Cc2ccc(Cl)cc2Cl)c2ccccc12` [RC-MC-30, 1-(2,4-dichlorobenzyl)indazole-3-carboxylic acid methyl ester], the “Ames test (−)S9 10 mg/pl.” value is “Pass”.
On the same count and under the same terms, in the case of `O=C(O)c1nn(Cc2ccc(Cl)cc2Cl)c2cc(C(F)(F)F)ccc12` [RC-MC-100, 1-(2,4-dichlorobenzyl)-6-trifluoromethyl-1H-indazole-3-carboxylic acid] it was “Pass”; in that of `CCOC(=O)c1nn(Cc2ccc(Cl)cc2Cl)c2ccccc12` [RC-MC-156, 1-[(2,4-dichlorobenzyl)-1H-indazole]-3-carboxylic acid ethyl ester], “Pass”.
Same read-out and setting: with `COC(=O)c1nn(Cc2ccc(Cl)cc2Cl)c2cc(F)ccc12` [JWS-1-158, 1-(2,4-dichlorobenzyl)-6-fluoro-1H-indazole-3-carboxylic acid methyl ester] the entry was “Pass”.

Values taken from patent US8362031B2, “Lonidamine analogues and treatment of polycystic kidney disease” (University of Kansas, priority 2004, dated 2013).
